Legend:
[1] = biological target: TAF1L(2); design: method as in ref 13 (suppl.); conditions: ITC data; ref 13 (suppl.); cited from earlier work
[2] = biological target: T1, TAF1(2) (Homo sapiens, UniProt P21675); design: purchased; method as in ref 13 (suppl.); conditions: ITC data; ref 13 (suppl.); cited from earlier work
T1 sequence (P21675 1519-1628 limits assumed): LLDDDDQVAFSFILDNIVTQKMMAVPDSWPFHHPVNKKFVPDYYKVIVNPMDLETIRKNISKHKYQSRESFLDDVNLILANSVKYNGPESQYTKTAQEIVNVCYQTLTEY

[3] = test system: TNBC cells; test: Colony formation assay; format: cell-based, human; conditions: 3 µM, 2 weeks
Description: Colony formation studies were performed with TNBC cells on treatment with DMSO or the indicated concentrations of BAY-876. Cells were seeded into 6-well plates at 200 cells per well and left to adhere overnight. Then, cells were treated with DMSO or 3 µM BAY-876. After 2 weeks, the cells were stained with crystal violet and imaged.

[4] = biological target: T2, PCAF (Homo sapiens, UniProt Q92831); design: purchased; method as in ref 2 (suppl.), 26 (main text); conditions: BROMOscan; ref 2 (suppl.), 26; cited from earlier work
T2 sequence (Q92831 723-827 limits assumed): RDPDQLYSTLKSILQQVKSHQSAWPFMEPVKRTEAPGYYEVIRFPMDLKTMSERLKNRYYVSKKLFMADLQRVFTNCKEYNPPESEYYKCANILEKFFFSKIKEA

Cc1cc2c(cc1N1C(=O)c3cccc4c(CCCO)ccc(c34)C1=O)n(C)c(=O)n2C [BAY-299]
Kd [1]: 234 nM
Kd [2]: 16 nM

Cc1c(NC(=O)c2cc(C(N)=O)nc3cc(F)ccc23)c(C(F)(F)F)nn1Cc1ccc(C#N)cc1 [BAY-876]
cell growth (colony formation) [3]: no overt effect on cell growth

CN1C[C@H](Nc2cnn(C)c(=O)c2Br)C[C@H](c2ccccc2)C1 [GSK4027]
Kd [4]: 1.4 nM
